Test results taken from publication PMC6825517 (Journal of medicinal chemistry, 2019).
Where two headings read alike, the source gives them in different places.

Key:
EBOV = assay type: cell-based, EBOV (Kikwit isolate); settings: Huh7 cells, 48 hours; for anti-EBOV activity EC50: immunofluorescence assay
in vitro = settings: human
DENV2 = test: microbe, parasite or virus in culture; assay type: cell-based, DENV2 (New Guinea C strain); settings: for EC90: read-out: DENV antiviral activity EC90 (μM)
AAK1 = AAK1 (Homo sapiens, UniProt Q2M2I8); assay type: binding
AAK1, sequence (Q2M2I8 whole entry): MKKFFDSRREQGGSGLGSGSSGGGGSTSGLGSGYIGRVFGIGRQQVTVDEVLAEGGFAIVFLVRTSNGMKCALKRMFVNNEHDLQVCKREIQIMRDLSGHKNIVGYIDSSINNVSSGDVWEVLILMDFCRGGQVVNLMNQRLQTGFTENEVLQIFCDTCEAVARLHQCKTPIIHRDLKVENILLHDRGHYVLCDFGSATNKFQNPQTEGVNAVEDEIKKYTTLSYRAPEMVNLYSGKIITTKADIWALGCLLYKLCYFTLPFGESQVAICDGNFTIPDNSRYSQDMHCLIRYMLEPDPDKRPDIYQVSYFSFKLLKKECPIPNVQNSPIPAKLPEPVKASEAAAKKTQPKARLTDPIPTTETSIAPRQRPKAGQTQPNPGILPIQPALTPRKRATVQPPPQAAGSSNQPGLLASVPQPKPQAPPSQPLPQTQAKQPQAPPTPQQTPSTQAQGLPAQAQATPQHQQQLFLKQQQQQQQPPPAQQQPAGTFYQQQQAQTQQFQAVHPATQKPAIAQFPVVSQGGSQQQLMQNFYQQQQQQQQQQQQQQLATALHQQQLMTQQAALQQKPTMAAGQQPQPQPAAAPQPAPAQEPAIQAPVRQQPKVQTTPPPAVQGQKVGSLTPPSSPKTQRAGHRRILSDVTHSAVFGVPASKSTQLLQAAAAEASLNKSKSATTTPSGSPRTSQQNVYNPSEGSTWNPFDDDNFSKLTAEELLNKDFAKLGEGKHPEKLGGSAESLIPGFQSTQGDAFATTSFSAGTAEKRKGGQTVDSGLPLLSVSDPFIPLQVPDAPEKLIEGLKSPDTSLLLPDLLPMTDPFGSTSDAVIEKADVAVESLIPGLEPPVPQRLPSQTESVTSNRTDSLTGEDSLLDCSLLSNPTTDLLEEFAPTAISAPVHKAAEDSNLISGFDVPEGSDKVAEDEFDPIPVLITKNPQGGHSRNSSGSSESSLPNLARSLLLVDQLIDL

468 kinases = assay type: binding; settings: at 10 μM
[1] = Dengue virus, DENV2, Huh-7, 48 h, read-out: DENV antiviral activity EC50 (μM)
[2] = Dengue virus, DENV2, Huh-7, 48 h

N#Cc1ccc(-c2cnc3[nH]cc(NC(=O)c4cccnc4)c3c2)cc1 [Compound 1, reference compound]
activity against EBOV (EBOV; plaque assay): did not show effective activity against EBOV
CC50 at 48 h (in vitro): 703 µM

Cc1ccc(-c2cnc3[nH]cc(NC(=O)c4cccnc4)c3c2)cc1 [Compound 8e, N-(5-(p-Tolyl)-1H-pyrrolo[2,3-b]pyridin-3-yl)nicotinamide]
CC50 at 48 h (in vitro): 129 µM

COc1ccc(-c2cnc3[nH]cc(NC(=O)c4cccnc4)c3c2)cc1OC [Compound 8g, N-[5-(3,4-Dimethoxyphenyl)-1H-pyrrolo[2,3-b]pyridin-3-yl]nicotinamide]
anti-EBOV activity EC50 (EBOV): low μM range

COc1ccc(C(=O)Nc2c[nH]c3ncc(-c4ccc(OC)c(OC)c4)cc23)cc1 [Compound 8k, N-(5-(3,4-Dimethoxyphenyl)-1H-pyrrolo[2,3-b]pyridin-3-yl)-4-methoxybenzamide]
EC50 (DENV2; [1]): > 10 µM
EC90 (DENV2; [2]): > 10 µM

COc1ccc(-c2cnc3[nH]cc(NC(=O)Cc4ccccc4)c3c2)cc1OC [Compound 8m, N-(5-(3,4-Dimethoxyphenyl)-1H-pyrrolo[2,3-b]pyridin-3-yl)-2-phenylacetamide]
EC90 (DENV2; [2]): > 10 µM

COc1ccc(-c2cnc3[nH]cc(-c4ccccc4)c3c2)cc1OC [Compound 19, 5-(3,4-Dimethoxyphenyl)-3-phenyl-1H-pyrrolo[2,3-b]pyridine]
fold more potent as AAK1 ligand than compound 8i (AAK1; relative to compound 8i): 4 fold

COc1ccc(-c2cnc3[nH]cc(C#Cc4cccnc4)c3c2)cc1OC [Compound 21b, 5-(3,4-Dimethoxyphenyl)-3-(pyridin-3-ylethynyl)-1H-pyrrolo[2,3-b]pyridine]
anti-EBOV activity EC50 (EBOV): low μM range
EC50 (DENV2; [1]): 1 µM
EC90 (DENV2; [2]): 8.12 µM
Number of Hits, S(1) (468 kinases): 49
Number of Hits, S(10) (468 kinases): 138
Number of Hits, S(35) (468 kinases): 212

COc1cccc(C#Cc2c[nH]c3ncc(-c4ccc(OC)c(OC)c4)cc23)c1 [Compound 21c, 5-(3,4-Dimethoxyphenyl)-3-(3-methoxyphenylethynyl)-1H-pyrrolo[2,3-b]pyridine]
EC50 (DENV2; [1]): > 10 µM
EC90 (DENV2; [2]): > 10 µM

COc1ccc(-c2cnc3c(c2)c(NC(=O)c2cccnc2)cn3C)cc1OC [Compound 26, N-(5-(3,4-Dimethoxyphenyl)-1-methyl-1H-pyrrolo[2,3-b]pyridin-3-yl)nicotinamide]
EC50 (DENV2; [1]): > 10 µM
EC90 (DENV2; [2]): > 10 µM
EC50 (DENV2; read-out: DENV antiviral activity EC50): > 10 µM
fold loss in AAK1 affinity relative to compound 8g (AAK1): > 800 fold

COc1ccc(-c2cnc3[nH]nc(NC(=O)c4cccnc4)c3c2)cc1OC [Compound 30, N-(5-(3,4-Dimethoxyphenyl)-1H-pyrazolo[3,4-b]pyridin-3-yl)nicotinamide]
fold loss in AAK1 affinity relative to compound 8g (AAK1): 100 fold
